In patent publication US8546322B2, “Inhibitors of intracellular urokinase plasminogen activator and methods of use thereof” (The Regents of the University of California, priority 2007, dated 2013):
Entries after “also recorded” stand apart in the source; their conditions may differ. Like-named read-outs stand apart in the source and are kept apart here. *1 amine or outer side, *2 acyl side, *3 side chain or, on linkers, in order; H or OH if unused. Where a SMILES comes first, the peptide text is derived from it. [ ]: non-standard residue; d: D form. X1 = N=C(N)NC(=O)c1nc(Cl)c(N(CC(=O)[*:2])[*:1])nc1N

How the values were obtained:
[1] = target: T1, NHE1 (Homo sapiens, UniProt P19634); assay: Sodium-proton exchange (NHE1) inhibition in glioma cells (BCECF fluorometry); assay type: cell-based
T1 construct: endogenous in cells; host or cells: glioma cell lines (U87)
T1 sequence (P19634 whole entry): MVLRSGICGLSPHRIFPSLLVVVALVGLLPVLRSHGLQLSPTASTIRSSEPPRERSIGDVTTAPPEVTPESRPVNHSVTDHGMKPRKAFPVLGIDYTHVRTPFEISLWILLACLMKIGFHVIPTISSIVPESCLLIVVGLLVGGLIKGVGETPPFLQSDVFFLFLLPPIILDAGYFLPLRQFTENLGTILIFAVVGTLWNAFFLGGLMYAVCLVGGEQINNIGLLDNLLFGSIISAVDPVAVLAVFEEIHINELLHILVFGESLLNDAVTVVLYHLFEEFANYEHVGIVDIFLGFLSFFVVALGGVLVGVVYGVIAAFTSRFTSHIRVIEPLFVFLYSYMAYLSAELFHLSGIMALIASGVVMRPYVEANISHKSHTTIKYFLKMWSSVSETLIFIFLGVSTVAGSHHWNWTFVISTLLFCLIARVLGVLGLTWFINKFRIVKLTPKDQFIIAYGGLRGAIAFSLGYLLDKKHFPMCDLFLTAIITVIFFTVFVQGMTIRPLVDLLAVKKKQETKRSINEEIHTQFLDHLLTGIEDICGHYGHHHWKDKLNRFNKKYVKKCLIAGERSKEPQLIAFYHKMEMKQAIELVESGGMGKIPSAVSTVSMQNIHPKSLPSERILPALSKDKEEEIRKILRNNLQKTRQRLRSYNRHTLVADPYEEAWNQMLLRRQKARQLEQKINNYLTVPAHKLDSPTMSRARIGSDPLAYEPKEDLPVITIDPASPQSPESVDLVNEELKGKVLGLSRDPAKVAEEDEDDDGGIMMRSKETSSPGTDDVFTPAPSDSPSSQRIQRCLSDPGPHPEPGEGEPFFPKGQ
Procedure: Sodium-proton type 1 (NHE1) and sodium-calcium transport (NCX) measurements in glioma cells. Inhibition of NHE in glioma cell lines using BCECF and quantitative fluorometry are routinely measured (McLean, L. A., et al., Malignant gliomas display altered pH regulation by NHE1 compared with nontransformed astrocytes. Am J Physiol Cell Physiol, 2000. 278(4): p. C676-88). IC50 of NCX transport bidirectionally is measured using whole cell patch clamping bidirectional NCX inhibition using a HEK-293 cell line transfected with NCX 1.1 obtained from J. Lytton (Dong, H., J. Dunn, and J. Lytton, Stoichiometry of the Cardiac Na+/Ca2+ exchanger NCX1.1 measured in transfected HEK cells. Biophys J, 2002. 82(4): p. 1943-52).

[2] = tested on: U87 glioma cells; assay: Cell permeation by fluorescent microscopy of U87 glioma cells; assay type: cell-based; details: 50 μM, 90-180 min incubation
Procedure: 27). The fluorescent extinction coefficient of each compound is determined using a spectrofluorometer and permits semi-quantitative estimations of intracellular drug accumulation.
U87 glioma cells were incubated with 50 uM of each compound for 180 min followed by washing the cells ×2 with PBS.

[3] = tested on: U87 glioma cells; assay: U87 cell death, manual cell counts with trypan blue exclusion; assay type: cell-based, human; details: for % cell death, trypan blue: 250 microM, 48 h treatment
[4] = Incubation in buffer solutions without enzymes; assay type: physicochemical
Procedure: (§1) Compound 3b is a C5am-Gly-peptide conjugate containing two D-amino acids, and compound 3c is a C5 am-Gly-peptide conjugate coupled to a peptide to generate an analog of opioid peptides that cross the blood brain barrier (BBB). The resultant conjugates (compounds 3a-c) were tested for selective cleavage by the brain peptidase enkephalinase (neutral endopeptidase 24.11; Calbiochem) via incubation for 24 h in the presence or absence of the enzyme, and aliquots from the reaction solutions were then analyzed by LCMS to identify the C5am-Gly conjugate (compound 3a), starting material, and enzymatic cleavage products (see, Scheme 3). As negative control experiments, the conjugates were analyzed following treatment with (1) bovine pancreatic trypsin (Calbiochem) or (2) the buffer solutions without enzymes.

[5] = target: T2, uPA (Homo sapiens, UniProt P00749); assay: uPA enzymatic inhibition with peptide-specific fluorogenic substrates; assay type: biochemical
T2 construct: uPA, tPA, and MMP-2 and MMP-9 enzymatic activities secreted by and contained within glioma cell lines; endogenous in cells; host or cells: U87 and other human glioma cell lines (homogenates, conditioned media)
Procedure: uPA, tPA, and MMP-2 and MMP-9 enzymatic activities secreted by and contained within glioma cell lines, normal astrocyte cultures, primary rat brain, and intracranial glioma xenograft homogenates are measured using commercial peptide analog substrates, that become fluorescent when enzymatically cleaved. Recombinant tPA was obtained from ASSAYPRO, CT1001.

[6] = tested on: glioma cells; assay: Glioma cell volume in vitro and in intracerebral xenografts (7 tesla NMR); assay type: cell-based
[7] = target: T3, bovine pancreatic trypsin (Bos taurus, UniProt P00760); assay: LCMS trypsin digest (negative control enzyme); assay type: biochemical; details: LCMS after incubation with enzyme
T3 construct: purchased Calbiochem; host or cells: bovine pancreas
T3 sequence (P00760 24-246): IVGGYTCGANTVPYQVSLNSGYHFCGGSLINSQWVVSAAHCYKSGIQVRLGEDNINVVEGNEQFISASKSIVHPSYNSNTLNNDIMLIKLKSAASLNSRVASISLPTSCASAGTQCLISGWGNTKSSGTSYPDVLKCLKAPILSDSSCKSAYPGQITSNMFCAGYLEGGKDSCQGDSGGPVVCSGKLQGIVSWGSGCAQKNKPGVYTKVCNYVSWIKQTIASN
Procedure: as §1

[8] = tested on: U87 glioma cells; assay: U87 proliferation and survival, tetrazolium (WST) live cell assay and manual cell counts; assay type: cell-based, human; details: for activity at 250 µM: Homo sapiens, U-87 MG, 48 h treatment, read-out: cell numbers as % of control at 48 h (WST assay)
Procedure: Proliferation of U87 glioma cells was inhibited by AmC(5)-GlyOBn at 24 h. […] Manual cell counts, coupled with the trypan blue exclusion assay, determined the number of viable cells at 24 h and 48 h. Three separate experiments (n=6/exp) with S.D. as shown, *significance at P<0.01. Removal of AmC(5)-GlyOBn at 24 h caused cell numbers to increase by 48 h, as compared with U87 glioma cell numbers that continued to be treated with the drug for 48 h (Table 1).
Total live cell numbers per well were determined using a tetrazolium assay (WST).
WST […] that can be reduced in attached and detached live cells to formazon that is detected spectrophotometrically. Formazon formation has been determined to be proportional to glioma cell number for U87MG, U251, U373, and primary astrocytes. Absorbances are measured at 570 nm using a microtiter plate reader. Mean background absorbances of cell-free media (630 nm) are subtracted from these values. […] Identical concentrations of glioma cells are grown until 50% confluent on 60 mm plates. Following drug treatments, floating cells in media are collected and combined with adherent cells that were harvested following 0.25% v/v trypsin for 5 minutes (37° C.). The combined fractions are centrifuged at 350×g for 5 min. The resultant cell pellet is resuspended in equal volumes of PBS-CMF with 0.4% trypan blue.

[9] = tested on: U87 glioma cells; assay: U87 glioma cell adherence to extracellular matrix (ECM); assay type: cell-based, human; details: for activity at 250 µM: Homo sapiens, U-87 MG, U87 cells on ECM, 4 h, read-out: % of control attachment at 4 h
Procedure: As shown in FIGS. 4A and B and, U87 glioma cells in logarithmic growth were trypsinized and washed ×1 with PBS. 4×10^5 cells were plated on to each ECM-coated well that was treated as indicated. Cells were monitored for adherence to the ECM. The numbers of attached cells in each well were manually counted using interference microscopy after 4 hours when adherence was complete. Experiments were performed in triplicate for each treatment and data expressed as mean+S.D. **statistically signif at P<0.001. Glioma cell morphology 4 h after plating as visualized by phase contrast microscopy.
To study adherence, wells in 24-well plates are coated with 200 ul of PBS (CMF Dulbecco's) containing one of the following ECM substrates: {i} […] {ii} vitronectin {iii} fibronectin {iv} lamininin-5. Plates are incubated 1 h at 37° C. then wells are washed once with prewarmed serum-free DMEM and the drug added to each well. Each treatment group, consisting of pretreated glioma cells (3×10^3 cells/well) is plated into 6 wells, and adhesion is evaluated at 60 min intervals over a 6-18 hour period, depending of the cell line. Unbound cells are gently dislodged with Dulbecco's PBS, while counting adherent cells in 10 random fields per each well under 10× magnification using an inverted microscope with interference phase optics and an ocular grid (21 mm^2). During the same time intervals, the percent value of spread cells with respect to adherent cells is evaluated.

[10] = tested on: intracerebral human U87 glioma xenografts; assay: Intracerebral U87 glioma xenograft growth (NMR, stereology); assay type: in vivo, athymic rats
Procedure: The volume of U87 glioma xenografts were measured at different postimplantation times using the small animal 7 tesla NMR facility on UC Davis campus.
Determining tumor doubling time (hrs) in U87 xenografts were measured using small animal NMR.
Pretreatment of athymic rats with intracranial AmC(5)Gly-OBn for 3 days prior to implantation achieved steady-state brain levels as measured by HPLC-fluorometry. Following glioma cell implantation, once daily intracranial administration was continued for 10 days.
Rats (250-280 gm) are intubated with 4% isoflurane and air:O2 (2:1), maintained on 2% isoflurane, and placed into a Kopf stereotactic apparatus. Glioma cells at are harvested at 80% confluence, trypsinized, and then washed three times in sterile, isotonic phosphate buffered saline. Cells are counted in a hemocytometer and diluted to a final concentration of 1×10^4 cells per microL. 5 microL of glioma cells (5×10^4) are stereotaxically injected into a 0.5 mm pocket made by a 23 gauge needle in the left anterior corpus striatum (−1 mm bregma, +4 mm left lateral, −5.0 mm depth) under sterile conditions in a laminar flow hood.
Prior to imaging the rats are administered 0.5 cc of OMNISCAN gadodiamide intraperitoneally (NYCOMED). […] A gradient recalled echo sequence is obtained which furnished a single slice in sagittal, coronal, and transverse orientations (‘triplot’) and which served as a scout image to ensure proper positioning of the animal. Spectroscopic images are obtained with a 7 Tesla (300 MHz) BRUKER BIOSPEC 70/20 system with a 210 mm horizontal bore equipped with B-GA12 shim coils driven by BRUKER Shim Power Supply with a maximum of 2A of current for each shim. S116 birdcage design resonator coil (maximum current: 100 A and maximum voltage: 150V) of 72 mm maximum sample diameter with gradient strength of 200 mT/mm was used for both. T1-weighted images (TR/TE=500/20 msec) are obtained using the standard spin echo sequence in the transverse, sagittal as well as in the coronal direction. […] Multiple contiguous slices separated by 1 mm are collected using 3 sinc pulses each of 2 msec duration, and which cover the entire tumor in one scan. The average scan time is approx 60 sec for the entire T1-weighted protocol.
Cavalieri's method estimates the volume of a structure (in our case, glial tumor) by measuring the area of the structure in a number of evenly spaced “two-dimensional” sections. In our in vivo tumor model, the procedure involves a systematically random collection of 10 sections evenly spaced through the entire tumor. To perform this, the brain is cut into 40 micron coronal sections and every section is collected to encompass the entire tumor. When the anterior most portion of the tumor becomes visible in the series of sections, a die is thrown to determine if the first, second, third, fourth, or fifth section from that point should be the initial section saved for staining and area analysis. Henceforth, every tenth section is stained and tumor area measured. This ensures that each section through the tumor has an equal probability of being analyzed. Tumor area is estimated with suitable precision by applying to each section a point grid with a known area associated with each point (a/p). Tumor volume (V) is then calculated using the formula: V=(T)·(a/p) delta Pi; where T=distance between sections, P=points landing on the tumor on the ith section.

[11] = Neuropathology and behaviour with intracranial administration; assay type: in vivo
Text: […]. For amiloride, parasaggital sections were stained with hematoxylin and eosin in addition to using specialized stains for neuronal damage (FluoroJade) and for myelinated fiber tracts (luxol fast blue). […].
. Each experimental and control group described below consist of a minimum of 10 animals per group. Experimental Design. The in vivo toxicity studies initially employ single, daily intracranial infusions of the candidate compound into a group of Sprague-Dawley rats for 13 days. Treated S-D animals are compared to a group of 10 control animals receiving intracranial drug vehicle injections. The infused drug concentration is based upon the cell line studies and adjusted for the low protein content of the cerebrospinal fluid which is 0.2% that of serum. Animals are behaviorally assessed for toxicity. […]. General Health and Behavioral Studies. Body weights and behavioral parameters are assessed daily in drug-treated and vehicle-treated rats during 12 day treatment paradigms. Currently, standardized behavior tests are used, which include quantitative measures of vestibulomotor function, fine motor coordination, ambulation, and spatial memory. A daily neurotoxicity behavioral sign checklist (72) to detect neurological signs of toxicity and seizures is also performed. Acquisition of spatial memory is particularly sensitive for detecting subtle drug toxicities (Preliminary Results). Body weight is used as a measure of general health. Neuropathological Studies: Cytological studies are performed in the same drug-treated and vehicle-treated rats at the conclusion of behavioral testing. Fixation and sectioning techniques are described in the Experimental Methods section. Hematoxylin and eosin are used routinely to survey for neuropathological changes. Luxol fast blue stains myelin tracts to evaluate potential white matter changes. […] Assessment of brainstem white matter tracts with luxol fast blue staining includes the spinocerebellar, vestibulospinal, corticospinal, spinothalamic. Specialized stains for reactive astrocytes, neuronal chromatolysis, etc. are added if brain lesions are detected. […]. Potential Problems and Alternatives. […]. […] These behavioral studies indicate the need to behaviorally assess treatment of the glioma tumor models.

[12] = in vivo; cited from earlier work
[13] = phase II; cited from earlier work
[14] = tested on: rat breast cancer; details: in vivo; cited from earlier work

Compound: N=C(N)NC(=O)c1nc(Cl)c(NCC(=O)O)nc1N [AmC(5)Gly, amilorideC(5)-glycine-OH]
- inhibition of NHE1 (in words) [1]: reversible and micromolar inhibitor
- IC50 ([1]; glioma cells): 0.01 to 0.1 µM
- potency of NHE1 inhibition relative to amiloride ([1]; glioma cells): 100-1000 times
- inhibition of NHE1 (in words) ([1]; listed as AmC(5)Gly-OH): micromolar range
- inhibition of NHE1 (in words) ([1]; listed as AmC(5)GlyOH): reversibly and comparably inhibit
- inhibition of NHE1 (in words) ([1]; listed as C5am-Gly): rapidly reversed
- cell permeation (in words) [2]: does not permeate glioma cells
- cell permeation (in words) ([2]; listed as AmC(5)Gly-OH): does not permeate cells
- cell permeation (in words) ([2]; listed as AmC(5)GlyOH): does not
- % cell death, trypan blue [3]: (5) %
- glioma cell death / viability (in words) ([3]; 48 h): does not affect
- stability in control (buffer) digestion (in words) [4]: unaffected
- inhibition of uPA (in words) [5]: reversible and micromolar inhibitor
- inhibition of uPA (in words) ([5]; listed as AmC(5)-Gly-OH): selectively inhibit
- inhibition of uPA (in words) ([5]; listed as AmC(5)Gly-OH): micromolar range
- inhibition of uPA (in words) ([5]; listed as AmC(5)GlyOH): reversibly and comparably inhibit
- glioma cell volume (in words) [6]: shrink glioma cell volumes
- glioma cell volume (in words) ([6]; listed as AmC(5)Gly-OH): does reduce glioma cell volume
- cleavage by trypsin (in words) [7]: unaffected
- glioma cell proliferation (in words) [8]: does not affect
- activity at 250 µM [8]: 93%
- glioma cell adherence to ECM (in words) [9]: does not affect
- activity at 250 µM [9]: 85 ± 15%

Compound: NC(N)=NC(=O)c1nc(Cl)c(N)nc1N [Amiloride, 3,5-diamino-6-chloro-N-(diaminomethylene)pyrazinecarboxamide]
- cell permeation (in words) [2]: rapidly permeate cells
- % cell death, trypan blue [3]: (57) %
- Doubling time ([10]; 10 mM amiloride reservoir (Alzet pump, infused days 12-17), day 10 post implant): 3.07 h
- Doubling time ([10]; 10 mM amiloride reservoir, day 12 post implant): 3.4 h
- Doubling time ([10]; 10 mM amiloride reservoir, day 15 post implant): 3.99 h
- Doubling time ([10]; 10 mM amiloride reservoir, day 17 post implant): 4.44 h
- Doubling time ([10]; 100 mM amiloride reservoir, 276 pmol/24 h (infused days 12-17), day 10 post implant): 1.23 h
- Doubling time ([10]; 100 mM amiloride reservoir, 276 pmol/24 h, day 12 post implant): 1.98 h
- Doubling time ([10]; 100 mM amiloride reservoir, 276 pmol/24 h, day 15 post implant): 4.58 h
- Doubling time ([10]; 100 mM amiloride reservoir, 276 pmol/24 h, day 17 post implant): 11.65^++ hrs
- xenograft tumor growth (in words) ([10]; intracranial administration): significantly slowed the growth rate
- behavioral side effects and seizures (in words) ([11]; efficacious intracranial administration): observed
- neuropathological changes in normal brain cell types (in words) ([11]; intracranial administration, 10-14 days): Neither compound produces neuropathological changes; also recorded: Neuropathological changes were not observed
- animals with intermittent seizures ([11]; intrathecal amiloride infusion, S-D male rats): 3 of 8
- spatial memory (in words) ([11]; intrathecal infusion): modestly affect spatial memory; also recorded: problems with spatial memory that persisted throughout the nine day infusion period
- premature deaths (in words) ([11]; rat, in vivo): no premature deaths
- motor performance (in words) ([11]; rats with intracerebral glioma xenografts, infusion): did not alter motor performance
- activity at 250 µM [8]: 31%
- activity at 250 µM [9]: 58 ± 12%

Compound: CC(C)C[C@@H](NC(=O)[C@H](Cc1ccccc1)NC(=O)CNC(=O)[C@@H](C)NC(=O)CNc1nc(N)c(C(=O)NC(=N)N)nc1Cl)C(=O)O [Compound 3b, C5am-Gly-D-Ala-Gly-Phe-D-Leu-OH] (H-[X1][dA]GF[dL]-OH)
- stability in control (buffer) digestion (in words) [4]: not cleaved
- cleavage by trypsin (in words) [7]: not cleaved

Compound: CC(C)C[C@H](NC(=O)[C@H](Cc1ccccc1)NC(=O)CNC(=O)CNC(=O)CNC(=O)CNc1nc(N)c(C(=O)NC(=N)N)nc1Cl)C(=O)O [Compound 3c, C5am-Gly-Gly-Gly-Gly-Phe-Leu-OH] (H-[X1]GGGFL-OH)
- cleavage by trypsin (in words) [7]: did not generate C5am-Gly

Compound: NC(=NCc1ccc(Cl)cc1Cl)NC(=O)c1nc(Cl)c(N)nc1N [DCB, 2,4-dichlorobenzamil]
- toxicity (in words) [12]: highly toxic and causes lethality when administered

Compound: CCOC(=O)N1CCN(C(=O)[C@H](Cc2cccc(C(=N)N)c2)NS(=O)(=O)c2c(C(C)C)cc(C(C)C)cc2C(C)C)CC1.Cl [WX-UK1]
- toxicity in clinical trials (in words) [13]: non-toxic
- metastasis and primary tumour growth (in words) [14]: suppresses rat breast cancer metastasis
